# Results: ChEMBL document CHEMBL1201862, “PubChem BioAssay data set” (2004)
#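 A five-concentration, 48-hour dose response in 96-well plates underlies each endpoint, interpolated linearly between surrounding concentrations. Here, GI50 denotes the concentration required for 50% inhibition of growth.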 Calls of active or inactive are those of the source. No stated cut-off is given here; in the data, active = GI50 up to about 1.1 µM and inactive = higher.
# Assays:
# Test in all cases: DTP human tumour cell line panel, 48 h
# 786-0 = system: 786-0
# A498 = system: A498
# A549 = system: A549
# ACHN = system: ACHN
# BT-549 = system: BT-549
# CAKI-1 = system: CAKI-1
# COLO 205 = system: COLO 205
# DU-145 = system: DU-145
# EKVX = system: EKVX
# HCC 2998 = system: HCC 2998
# HCT-116 = system: HCT-116
# HCT-15 = system: HCT-15
# HL-60 = system: HL-60
# HOP-62 = system: HOP-62
# HOP-92 = system: HOP-92
# HT-29 = system: HT-29
# Hs-578T = system: Hs-578T
# IGROV-1 = system: IGROV-1
# K562 = system: K562
# KM12 = system: KM12
# LOX IMVI = system: LOX IMVI
# M14 = system: M14
# MCF7 = system: MCF7
# MDA-MB-231 = system: MDA-MB-231
# MDA-MB-435 = system: MDA-MB-435
# MDA-N = system: MDA-N
# Malme-3M = system: Malme-3M
# NCI-H226 = system: NCI-H226
# NCI-H23 = system: NCI-H23
# NCI-H460 = system: NCI-H460
# NCI-H522 = system: NCI-H522
# NCI/ADR-RES = system: NCI/ADR-RES
# OVCAR-3 = system: OVCAR-3
# OVCAR-4 = system: OVCAR-4
# OVCAR-5 = system: OVCAR-5
# OVCAR-8 = system: OVCAR-8
# PC-3 = system: PC-3
# RPMI-8226 = system: RPMI-8226
# RXF 393 = system: RXF 393
# SF-268 = system: SF-268
# SF-295 = system: SF-295
# SF-539 = system: SF-539
# SK-MEL-28 = system: SK-MEL-28
# SK-MEL-2 = system: SK-MEL-2
# SK-MEL-5 = system: SK-MEL-5
# SK-OV-3 = system: SK-OV-3
# SN12C = system: SN12C
# SNB-19 = system: SNB-19
# SNB-75 = system: SNB-75
# SR = system: SR
# SW-620 = system: SW-620
# TK-10 = system: TK-10
# U-251 = system: U-251
# UACC-257 = system: UACC-257
# UACC-62 = system: UACC-62
# UO-31 = system: UO-31
# MOLT-4 = system: MOLT-4
structure (smiles),measurement,setting,value
CN(C)S(=O)(=O)Nc1ccccn1,GI50,786-0,> 100 µM (inactive)
same,GI50,A498,> 100 µM (inactive)
same,GI50,A549,> 100 µM (inactive)
same,GI50,ACHN,> 100 µM (inactive)
same,GI50,BT-549,> 100 µM (inactive)
same,GI50,CAKI-1,> 100 µM (inactive)
same,GI50,COLO 205,> 100 µM (inactive)
same,GI50,DU-145,> 100 µM (inactive)
same,GI50,EKVX,> 100 µM (inactive)
same,GI50,HCC 2998,> 100 µM (inactive)
same,GI50,HCT-116,> 100 µM (inactive)
same,GI50,HCT-15,> 100 µM
same,GI50,HL-60,> 100 µM (inactive)
same,GI50,HOP-62,> 100 µM (inactive)
same,GI50,HOP-92,> 100 µM (inactive)
same,GI50,HT-29,> 100 µM (inactive)
same,GI50,Hs-578T,> 100 µM (inactive)
same,GI50,IGROV-1,> 100 µM (inactive)
same,GI50,K562,> 100 µM (inactive)
same,GI50,KM12,> 100 µM (inactive)
same,GI50,LOX IMVI,> 100 µM (inactive)
same,GI50,M14,> 100 µM (inactive)
same,GI50,MCF7,> 100 µM (inactive)
same,GI50,MDA-MB-231,> 100 µM (inactive)
same,GI50,MDA-MB-435,> 100 µM (inactive)
same,GI50,MDA-N,> 100 µM (inactive)
same,GI50,Malme-3M,> 100 µM (inactive)
same,GI50,NCI-H226,> 100 µM (inactive)
same,GI50,NCI-H23,> 100 µM (inactive)
same,GI50,NCI-H460,> 100 µM (inactive)
same,GI50,NCI-H522,> 100 µM (inactive)
same,GI50,NCI/ADR-RES,> 100 µM (inactive)
same,GI50,OVCAR-3,> 100 µM (inactive)
same,GI50,OVCAR-4,> 100 µM (inactive)
same,GI50,OVCAR-5,> 100 µM (inactive)
same,GI50,OVCAR-8,> 100 µM (inactive)
same,GI50,PC-3,> 100 µM (inactive)
same,GI50,RPMI-8226,> 100 µM (inactive)
same,GI50,RXF 393,> 100 µM (inactive)
same,GI50,SF-268,> 100 µM (inactive)
same,GI50,SF-295,> 100 µM (inactive)
same,GI50,SF-539,> 100 µM (inactive)
same,GI50,SK-MEL-28,> 100 µM (inactive)
same,GI50,SK-MEL-2,> 100 µM (inactive)
same,GI50,SK-MEL-5,> 100 µM (inactive)
same,GI50,SK-OV-3,> 100 µM (inactive)
same,GI50,SN12C,> 100 µM (inactive)
same,GI50,SNB-19,> 100 µM (inactive)
same,GI50,SNB-75,> 100 µM (inactive)
same,GI50,SR,> 100 µM (inactive)
same,GI50,SW-620,> 100 µM (inactive)
same,GI50,TK-10,> 100 µM (inactive)
same,GI50,U-251,> 100 µM (inactive)
same,GI50,UACC-257,> 100 µM (inactive)
same,GI50,UACC-62,> 100 µM (inactive)
same,GI50,UO-31,> 100 µM (inactive)
C=C(C)C[C@H](Sc1nc2ccccc2s1)[C@H](C)O,GI50,786-0,40.8 µM (inactive)
same,GI50,A498,27.2 µM (inactive)
same,GI50,A549,50.5 µM (inactive)
same,GI50,ACHN,> 100 µM (inactive)
same,GI50,BT-549,40.2 µM (inactive)
same,GI50,CAKI-1,70.1 µM (inactive)
same,GI50,COLO 205,35.5 µM (inactive)
same,GI50,DU-145,88.1 µM (inactive)
same,GI50,EKVX,32.4 µM (inactive)
same,GI50,HCC 2998,59.2 µM (inactive)
same,GI50,HCT-116,39.4 µM (inactive)
same,GI50,HCT-15,35.8 µM
same,GI50,HL-60,18.9 µM (inactive)
same,GI50,HOP-62,> 100 µM (inactive)
same,GI50,HOP-92,24.6 µM (inactive)
same,GI50,HT-29,31.1 µM (inactive)
same,GI50,Hs-578T,41.3 µM (inactive)
same,GI50,IGROV-1,> 100 µM (inactive)
same,GI50,K562,33.7 µM (inactive)
same,GI50,KM12,41.2 µM (inactive)
same,GI50,LOX IMVI,39.4 µM (inactive)
same,GI50,M14,77.3 µM (inactive)
same,GI50,MCF7,38.3 µM (inactive)
same,GI50,MDA-MB-231,73.6 µM (inactive)
same,GI50,MDA-MB-435,37.2 µM (inactive)
same,GI50,MDA-N,37 µM (inactive)
same,GI50,MOLT-4,16.4 µM (inactive)
same,GI50,Malme-3M,25.6 µM (inactive)
same,GI50,NCI-H226,22.5 µM (inactive)
same,GI50,NCI-H23,31 µM (inactive)
same,GI50,NCI-H460,45.3 µM (inactive)
same,GI50,NCI-H522,23.8 µM (inactive)
same,GI50,NCI/ADR-RES,33 µM (inactive)
same,GI50,OVCAR-3,18.8 µM (inactive)
same,GI50,OVCAR-4,70.1 µM (inactive)
same,GI50,OVCAR-5,65.8 µM (inactive)
same,GI50,OVCAR-8,34.3 µM (inactive)
same,GI50,PC-3,22.6 µM (inactive)
same,GI50,RPMI-8226,28.9 µM (inactive)
same,GI50,RXF 393,48.3 µM (inactive)
same,GI50,SF-268,42.3 µM (inactive)
same,GI50,SF-295,39.5 µM (inactive)
same,GI50,SF-539,41.8 µM (inactive)
same,GI50,SK-MEL-28,41.4 µM (inactive)
same,GI50,SK-MEL-2,23.1 µM (inactive)
same,GI50,SK-MEL-5,18.1 µM (inactive)
same,GI50,SN12C,45.4 µM (inactive)
same,GI50,SNB-19,> 100 µM (inactive)
same,GI50,SR,30.3 µM (inactive)
same,GI50,SW-620,45.4 µM (inactive)
same,GI50,TK-10,71.3 µM (inactive)
same,GI50,U-251,37.5 µM (inactive)
same,GI50,UACC-257,32.4 µM (inactive)
same,GI50,UACC-62,52.7 µM (inactive)
same,GI50,UO-31,69 µM (inactive)
